# Test results reported in publication PMC4007584 (Journal of biomolecular screening, 2013).
# Counter-ions that a name gives are not always drawn.
# Key:
# [1] = target: catalytic domain of PDE10A2 (Homo sapiens, UniProt Q9Y233); test: PDE10A calorimetric activity assay; format: biochemical
# R6/2 mice = details: IP beginning at 4 weeks of age; cited from earlier work
# PDE10A = details: literature; cited from earlier work
# Chain of catalytic domain of PDE10A2 (Q9Y233 715-1055 limits assumed): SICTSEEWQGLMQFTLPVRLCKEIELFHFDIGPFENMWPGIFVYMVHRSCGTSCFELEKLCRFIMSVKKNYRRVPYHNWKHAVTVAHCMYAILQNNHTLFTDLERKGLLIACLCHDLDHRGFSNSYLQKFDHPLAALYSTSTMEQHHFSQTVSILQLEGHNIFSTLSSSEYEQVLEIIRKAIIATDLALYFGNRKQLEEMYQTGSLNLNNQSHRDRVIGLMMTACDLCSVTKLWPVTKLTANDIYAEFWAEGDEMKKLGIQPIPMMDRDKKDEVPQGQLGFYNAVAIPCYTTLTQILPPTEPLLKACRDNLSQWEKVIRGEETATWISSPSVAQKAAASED
Structure (SMILES),Ki [1] [µM],"inhibition mechanism, PDE10A [1]",reduction of the loss of striatal size (R6/2 mice) [%],"Ligand Efficiency PDE10A ([1]; Table 1, from enthalpy array KI) [kcal mol^−1 HA^−1]",IC50 (PDE10A) [µM]
"CC(=O)CCCCn1c(=O)c2c(ncn2C)n(C)c1=O [Pentoxifylline, pentoxifylline]",200 ± 60,competitive inhibition,–,–,–
FC(F)(F)Cn1cc(-c2ccncc2)c(-c2ccc(OCc3ccc4ccccc4n3)cc2)n1 [TP-10],–,–,50,–,–
"CC(C)Cn1c(=O)n(C)c(=O)c2[nH]cnc21 [IBMX, 3-isobutyl-1-methylxanthine]",17 ± 6.6,competitive inhibition,–,0.41,11
"COc1ccc(Cc2nccc3cc(OC)c(OC)cc23)cc1OC [Papaverine, papaverine hydrochloride]",–,competitive inhibition,–,–,0.095
